These results are taken from patent publication US20180251847A1, “METHOD OF PREDICTING THE TUMOR RESPONSE TO DNA METHYLATION INHIBITORS AND ALTERNATIVE THERAPEUTIC REGIMEN FOR OVERCOMING RESISTANCE” (PALACKY UNIVERSITY, OLOMOUC, priority 2014, published 2018).

One experiment relates to R1.3 (HCT116-RDAC). As to the kind of experiment: MTT based cell survival assay, DAC resistant HCT116 clone R1.3. Details: species or system human. As for the experimental part:
(§1) The DAC resistant HCT116 cell lines were developed using two methods.
(§2) The method is primarily based on reduction of yellow colored tetrazolium salt, 3-(4,5-dimethylthiazol-2-yl)-2,5-diphenyltetrazolium bromide (MTT) to insoluble purple colored formazan crystals by NAD(P)H-dependent oxidoreductase enzymes in mitochondria of the viable cell.
(§3) Cells in 80 μL of medium were plated in each of the experimental and the control wells, followed by addition of 20 μL medium with five-fold drug concentration to experimental wells. The wells with medium alone were included alongside as blank for absorbance readings. After 72 h of drug treatment, 10 μL MTT (Sigma-Aldrich) prepared in 1×PBS (5 mg/mL) was added to all wells including blank and control, and incubated until the purple formazan crystals were visible after which 100 μL of detergent (10% SDS, pH: 5.5) was added and the plates were incubated overnight to solubilize the formazan and the cellular material.
(§4) Cross resistance was determined as the fold increase, whereas, the sensitivity was determined as the fold decrease in the IC50 of the drugs for the resistant cell lines compared to their genetically identical drug sensitive counterpart.

The subject of the next experiment is R1.4 (HCT116-RDAC). As to the kind of experiment: MTT based cell survival assay, DAC resistant HCT116 clone R1.4. More on the design: species or system human. As for the experimental part: as §1, §2, §3, §4
The mark [1] stands for this setting: Homo sapiens, HCT-116, 72 h, read-out: Mean IC50.

pIC50: −log10 of the molar value. A value given as a limit tells only on which side of the number the result lay.

One may read the pIC50 as the IC50 on a negative log10 scale, so that one unit is a factor of ten. On to `Nc1ncn([C@H]2C[C@H](O)[C@@H](CO)O2)c(=O)n1` [DAC, 2′-deoxy-5-azacytidine], for which the pIC50 in the experiment on R1.3 (HCT116-RDAC) (setting [1]) and in the experiment on R1.4 (HCT116-RDAC) (setting [1]) was under 4.00 each time. Besides, the “fold change (resistance index)” value in the experiment on R1.3 (HCT116-RDAC) (IC50 R1.3 / IC50 HCT116) and with R1.4 (HCT116-RDAC) (IC50 R1.4 / IC50 HCT116) was “(>357) fold” in each case.
